Measured values from patent publication US9796706B2, “Inhibitors of Jun N-terminal kinase” (IMAGO PHARMACEUTICALS, INC., priority 2009, dated 2017).

Assays:
Assay type in all cases: biochemical
Conditions in all cases: procedures of Example 14 (TR-FRET)
[1] = molecular target: JNK1 (Homo sapiens (Human), UniProt P45983); test: JNK1 TR-FRET kinase assay (Example 14)
Description: (§1) 14.3. Active JNK 1, 2 and 3 TR-FRET Assay
(§2) (1) Assay buffer #1 with 0.0025% Tween and 1 mM DTT was prepared using JNK buffer stock solution.
(§3) (2) Assay buffer #2 with 0.025% BSA was prepared using the assay buffer #1.
(§4) (3) Test compound solution preparation: 5× compound solution was prepared using assay buffer #1 with 5% DMSO. The compound solution (10 μl/well) was added to a 384-well plate (Corning, Cat No. 3654).
(§5) (4) aJNK1, 2 or 3 preparation: aJNK stock (100 μg/ml) at −80° C. was thawed on ice and an aJNK (1.6 ng/ml) solution was prepared using assay buffer #2. The aJNK solution (20 μl/well) was added to the plate and the plate was shaken. The enzyme was incubated with the compound at RT for 10 min. (5) ATP/substrate solution preparation: ATP and substrate stocks were thawed on ice. 2.5×ATP/substrate (e.g., 25 μM or 2.5 mM ATP/50 nM EPIW-1) was prepared using assay buffer #1. The ATP/substrate (20 μl/well) was added to the plate and the plate was shaken. The plate was incubated at RT for 15 min. Note: In an exemplary assay, the final ATP concentration was about 1 mM. (6) EDTA preparation: 30 mM EDTA was prepared using 0.5M EDTA stock and assay buffer #1. The EDTA (10 μl/well) was added to the plate to quench the enzyme reaction and the plate was shaken well. (7) Detection reagent preparation: Eu-63 and SA-XL stocks were thawed on ice. 4× Eu-63/SA-XL (2 nM Eu-63/9.4 nM SA-XL) was prepared using JNK detection buffer. The Eu-63/SA-XL solution (20 μl/well) was added to the plate and the plate was shaken. The plate was incubated at RT for 1 hr before reading the plate on LJL using ratiometric method named HTRF.
(§6) 14.4. Coupled JNK 1, 2 and 3 TR-FRET Assay
(§7) (1) Assay buffer with 0.0025% Tween, 0.01% BSA, and 1 mM DTT was prepared using JNK buffer stock solution.
(§8) (2) Test compound solution preparation: 5× compound solution, including EDTA background, was prepared using assay buffer with 5% DMSO. The compound solution (10 μl/well) was added to a 384-well plate (Corning, Cat No. 3654).
(§9) (3) uJNK1,2, or 3 activation reaction preparation: uJNK activation solution was prepared using assay buffer (1.6 ng/ml MKK4, 1.6 ng/ml MKK7, 16 ng/ml uJNK, and 20 uM ATP final). The uJNK activation solution (35 μl/well) was added to the plate, the plate was shaken, and the reaction mixture was incubated with compound at 30° C. for 60 min. (4) c-Jun substrate solution preparation: 50 nM EPIW-1, c-Jun peptide, was prepared using assay buffer (15 nM final). The EPIW-1 solution (15 μl/well) was added to the plate, the plate was shaken and incubated at 30° C. for 60 min. (5) EDTA preparation: 30 mM EDTA was prepared using 0.5M EDTA stock and assay buffer. The EDTA (10 μl/well) was added to the plate to quench the enzyme reaction and the plate was shaken well. (6) Detection reagent preparation: Eu-73 and SA-XL stocks were thawed on ice. 4× Eu-73/SA-XL (2 nM Eu-73/9.4 nM SA-XL) were prepared using JNK detection buffer. The Eu-73/SA-XL solution (20 μl/well) was added to the plate. The plate was shaken and incubated at RT for 1 hr before reading the plate on LJL using ratiometric method named HTRF.

[2] = molecular target: JNK3 (Homo sapiens (Human), UniProt P53779); test: JNK3 TR-FRET kinase assay (Example 14)
Chain of JNK3 (P53779 whole entry, species assumed): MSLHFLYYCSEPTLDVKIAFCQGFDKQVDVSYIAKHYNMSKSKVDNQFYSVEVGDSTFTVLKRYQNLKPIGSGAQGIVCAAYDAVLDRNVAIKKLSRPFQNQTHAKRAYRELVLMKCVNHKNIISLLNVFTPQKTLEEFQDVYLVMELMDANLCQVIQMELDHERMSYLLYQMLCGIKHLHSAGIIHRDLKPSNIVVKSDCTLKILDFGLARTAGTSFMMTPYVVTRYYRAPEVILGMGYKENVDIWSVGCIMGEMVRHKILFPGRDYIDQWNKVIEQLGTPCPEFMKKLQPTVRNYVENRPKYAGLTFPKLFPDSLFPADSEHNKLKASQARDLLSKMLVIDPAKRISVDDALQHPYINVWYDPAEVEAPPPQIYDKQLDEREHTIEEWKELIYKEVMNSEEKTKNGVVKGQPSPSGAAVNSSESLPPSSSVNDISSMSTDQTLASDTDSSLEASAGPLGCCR
Description: as §1, §2, §3, §4, §5, §6, §7, §8, §9

[3] = molecular target: JNK2 (Homo sapiens (Human), UniProt P45984); test: JNK2 TR-FRET kinase assay (Example 14)
Chain of JNK2 (P45984 whole entry, species assumed): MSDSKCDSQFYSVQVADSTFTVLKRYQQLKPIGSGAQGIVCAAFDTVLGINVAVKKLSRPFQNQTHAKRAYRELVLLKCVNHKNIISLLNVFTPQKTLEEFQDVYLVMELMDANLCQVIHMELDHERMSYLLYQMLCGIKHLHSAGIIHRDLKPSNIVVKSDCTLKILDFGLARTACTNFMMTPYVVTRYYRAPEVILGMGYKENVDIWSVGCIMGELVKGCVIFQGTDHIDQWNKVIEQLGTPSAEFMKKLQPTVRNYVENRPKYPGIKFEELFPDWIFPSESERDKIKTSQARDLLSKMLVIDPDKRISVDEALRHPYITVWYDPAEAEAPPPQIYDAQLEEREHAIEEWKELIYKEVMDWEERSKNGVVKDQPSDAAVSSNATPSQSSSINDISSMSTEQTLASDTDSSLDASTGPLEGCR
Description: as §1, §2, §3, §4, §5, §6, §7, §8, §9

Chain of JNK1 (P45983 other isoform, or with tags, fused parts or gaps isoform P45983-2, species assumed): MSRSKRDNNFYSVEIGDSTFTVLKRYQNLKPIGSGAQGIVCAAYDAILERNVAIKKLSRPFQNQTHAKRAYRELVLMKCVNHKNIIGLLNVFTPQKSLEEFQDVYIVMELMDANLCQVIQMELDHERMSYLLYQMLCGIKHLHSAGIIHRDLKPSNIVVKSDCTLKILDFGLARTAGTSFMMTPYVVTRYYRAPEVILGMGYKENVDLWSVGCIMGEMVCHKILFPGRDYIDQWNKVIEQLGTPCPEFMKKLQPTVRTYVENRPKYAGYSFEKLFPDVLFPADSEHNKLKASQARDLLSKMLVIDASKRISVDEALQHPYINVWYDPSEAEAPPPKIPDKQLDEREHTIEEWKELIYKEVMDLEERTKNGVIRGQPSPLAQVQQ

IC50 [1] | IC50 [2] | IC50 [3] | Structure (SMILES)
< 100 nM | < 100 nM | < 100 nM | O=C(Cn1c(=O)ccn2nccc12)Nc1scc(Br)c1-c1ncn[nH]1 [N-(4-bromo-3-(1H-1,2,4-triazol-5-yl)thiophen-2-yl)-2-(5-oxopyrazolo[1,5-a]pyrimidin-4(5H)-yl)acetamide]
< 100 nM | < 100 nM | 100 to 10000 nM | O=C(Cc1cccc2ncsc12)Nc1scc(Br)c1-c1ncn[nH]1 [2-(benzo[d]thiazol-7-yl)-N-(4-bromo-3-(1H-1,2,4-triazol-5-yl)thiophen-2-yl)acetamide]
< 100 nM | < 100 nM | < 100 nM | O=C(Cn1c(=O)ccc2cc(F)ccc21)Nc1scc(Br)c1-c1ncn[nH]1 [N-(4-bromo-3-(1H-1,2,4-triazol-5-yl)thiophen-2-yl)-2-(6-fluoro-2-oxoquinolin-1(2H)-yl)acetamide]
< 100 nM | < 100 nM | < 100 nM | N#Cc1ccc2ccc(=O)n(CC(=O)Nc3scc(Br)c3-c3ncn[nH]3)c2c1 [N-(4-bromo-3-(1H-1,2,4-triazol-5-yl)thiophen-2-yl)-2-(7-cyano-2-oxoquinolin-1(2H)-yl)acetamide]
< 100 nM | < 100 nM | < 100 nM | O=C(Cn1c(=O)ccc2nc(C(F)(F)F)ccc21)Nc1scc(Br)c1-c1ncn[nH]1 [N-(4-bromo-3-(1H-1,2,4-triazol-5-yl)thiophen-2-yl)-2-(2-oxo-6-(trifluoromethyl)-1,5-naphthyridin-1(2H)-yl)acetamide]
< 100 nM | < 100 nM | < 100 nM | O=C(CN1C(=O)CCc2cc(F)ccc21)Nc1scc(Br)c1-c1ncn[nH]1 [N-(4-bromo-3-(1H-1,2,4-triazol-5-yl)thiophen-2-yl)-2-(6-fluoro-2-oxo-3,4-dihydroquinolin-1(2H)-yl)acetamide]
< 100 nM | < 100 nM | < 100 nM | O=C(CN1C(=O)CCc2ccc(Cl)cc21)Nc1scc(Br)c1-c1ncn[nH]1 [N-(4-bromo-3-(1H-1,2,4-triazol-5-yl)thiophen-2-yl)-2-(7-chloro-2-oxo-3,4-dihydroquinolin-1(2H)-yl)acetamide]
< 100 nM | < 100 nM | < 100 nM | O=C(Cn1c(=O)ccc2ccc(OC(F)(F)F)cc21)Nc1scc(Br)c1-c1ncn[nH]1 [N-(4-bromo-3-(1H-1,2,4-triazol-5-yl)thiophen-2-yl)-2-(2-oxo-7-(trifluoromethoxy)quinolin-1(2H)-yl)acetamide]
< 100 nM | < 100 nM | 100 to 10000 nM | O=C(Cn1c(=O)ccc2c(C(F)(F)F)cccc21)Nc1scc(Br)c1-c1ncn[nH]1 [N-(4-bromo-3-(1H-1,2,4-triazol-5-yl)thiophen-2-yl)-2-(2-oxo-5-(trifluoromethyl)quinolin-1(2H)-yl)acetamide]

More lines, now with the values behind:

Structure (SMILES) | IC50 [1] | IC50 [2] | IC50 [3]
O=C(Cn1c(=O)ccc2cc(Br)ccc21)Nc1scc(Cl)c1-c1nc[nH]n1 [2-(6-bromo-2-oxoquinolin-1(2H)-yl)-N-(4-chloro-3-(1H-1,2,4-triazol-3-yl)thiophen-2-yl)acetamide] | < 100 nM | < 100 nM | < 100 nM
O=C(CN1C(=O)CCc2cc(C(F)(F)F)ccc21)Nc1scc(Br)c1-c1ncn[nH]1 [N-(4-bromo-3-(1H-1,2,4-triazol-5-yl)thiophen-2-yl)-2-(2-oxo-6-(trifluoromethyl)-3,4-dihydroquinolin-1(2H)-yl)acetamide] | < 100 nM | < 100 nM | < 100 nM
Cn1cnc(-c2c(Cl)csc2NC(=O)CN2C(=O)CCc3ncccc32)n1 [N-(4-chloro-3-(1-methyl-1H-1,2,4-triazol-3-yl)thiophen-2-yl)-2-(2-oxo-3,4-dihydro-1,5-naphthyridin-1(2H)-yl)acetamide] | < 100 nM | < 100 nM | < 100 nM
COc1ccc(CC(=O)Nc2ccsc2-c2c[nH]cn2)cc1 [N-(2-(1H-imidazol-4-yl)thiophen-3-yl)-2-(4-methoxyphenyl)-acetamide] | > 10000 nM | > 10000 nM | > 50000 nM
O=C(Cc1cccc2ncccc12)Nc1ccsc1-c1nnc[nH]1 [N-(2-(1H-1,2,4-triazol-5-yl)thiophen-3-yl)-2-(quinolin-5-yl)acetamide] | 100 to 10000 nM | 100 to 10000 nM | 100 to 10000 nM
O=C(CN1C(=O)CCc2ccccc21)Nc1scc(Cl)c1-c1ncn[nH]1 [N-(4-chloro-3-(1H-1,2,4-triazol-5-yl)thiophen-2-yl)-2-(2-oxo-3,4-dihydroquinolin-1(2H)-yl)acetamide] | < 100 nM | < 100 nM | < 100 nM
O=C(CN1C(=O)CCc2ncccc21)Nc1scc(Cl)c1-c1nccs1 [N-(4-chloro-3-(thiazol-2-yl)thiophen-2-yl)-2-(2-oxo-3,4-dihydro-1,5-naphthyridin-1(2H)-yl)acetamide] | < 100 nM | < 100 nM | < 100 nM
N#Cc1csc(NC(=O)Cn2c(=O)ccc3cc(C(F)(F)F)ccc32)c1-c1cncs1 [N-(4-cyano-3-(thiazol-5-yl)thiophen-2-yl)-2-(2-oxo-6-(trifluoromethyl)quinolin-1(2H)-yl)acetamide] | 100 to 10000 nM | 100 to 10000 nM | 100 to 10000 nM
COc1ccc(CC(=O)Nc2ccsc2-c2nc(-c3ccncc3)n[nH]2)cc1 [2-(4-methoxyphenyl)-N-(2-(3-(pyridin-4-yl)-1H-1,2,4-triazol-5-yl)thiophen-3-yl)acetamide] | 100 to 10000 nM | > 10000 nM | > 50000 nM
Cc1cnc(-c2sccc2NC(=O)Cc2cccc3cnccc23)s1 [2-(isoquinolin-5-yl)-N-(2-(5-methylthiazol-2-yl)thiophen-3-yl)acetamide] | 100 to 10000 nM | 100 to 10000 nM | 100 to 10000 nM
Cn1cnc(-c2c(Cl)csc2NC(=O)Cn2c(=O)ccc3cnc(C(F)(F)F)cc32)n1 [N-(4-chloro-3-(1-methyl-1H-1,2,4-triazol-3-yl)thiophen-2-yl)-2-(2-oxo-7-(trifluoromethyl)-1,6-naphthyridin-1(2H)-yl)acetamide] | < 100 nM | < 100 nM | < 100 nM
Cc1csc(NC(=O)Cc2ccc(OCCn3ccnc3)cc2)c1-c1ncn[nH]1 [2-(4-(2-(1H-imidazol-1-yl)ethoxy)phenyl)-N-(4-methyl-3-(1H-1,2,4-triazol-5-yl)thiophen-2-yl)acetamide] | 100 to 10000 nM | 100 to 10000 nM | 100 to 10000 nM
N#Cc1csc(NC(=O)Cn2c(=O)ccc3cc(C(F)(F)F)ccc32)c1-n1ccnn1 [N-(4-cyano-3-(1H-1,2,3-triazol-1-yl)thiophen-2-yl)-2-(2-oxo-6-(trifluoromethyl)quinolin-1(2H)-yl)acetamide] | 100 to 10000 nM | 100 to 10000 nM | 100 to 10000 nM
O=C(Cc1cccc2cnccc12)Nc1ccsc1-c1cscn1 [2-(isoquinolin-5-yl)-N-(2-(thiazol-4-yl)thiophen-3-yl)acetamide] | 100 to 10000 nM | 100 to 10000 nM | 100 to 10000 nM
N#Cc1csc(NC(=O)CN2C(=O)CCc3ncccc32)c1-c1nccs1 [N-(4-cyano-3-(thiazol-2-yl)thiophen-2-yl)-2-(2-oxo-3,4-dihydro-1,5-naphthyridin-1(2H)-yl)acetamide] | < 100 nM | < 100 nM | < 100 nM
